We go through ten compounds from publication PMC9303812, “Asymmetrically Substituted m‐Terphenyl Phosphates Inhibit the Transcription Factor STAT5a” (Chembiochem, 2021).

The IC50 is the midpoint of a concentration-inhibition curve. Low readings indicate greater potency in that assay, high ones weaker potency in that assay. One may read the Ki as a dissociation constant, usually derived from enzyme kinetics or from competition with a known ligand. Lower therefore signals a stronger hold on the target. For orientation: melting point means the temperature of the solid-liquid transition. As a reminder, the inhibition is how much of the control response was suppressed.

In series [1] the target is T1, STAT5a (Homo sapiens, UniProt P42229).
T1 sequence (P42229 1-794): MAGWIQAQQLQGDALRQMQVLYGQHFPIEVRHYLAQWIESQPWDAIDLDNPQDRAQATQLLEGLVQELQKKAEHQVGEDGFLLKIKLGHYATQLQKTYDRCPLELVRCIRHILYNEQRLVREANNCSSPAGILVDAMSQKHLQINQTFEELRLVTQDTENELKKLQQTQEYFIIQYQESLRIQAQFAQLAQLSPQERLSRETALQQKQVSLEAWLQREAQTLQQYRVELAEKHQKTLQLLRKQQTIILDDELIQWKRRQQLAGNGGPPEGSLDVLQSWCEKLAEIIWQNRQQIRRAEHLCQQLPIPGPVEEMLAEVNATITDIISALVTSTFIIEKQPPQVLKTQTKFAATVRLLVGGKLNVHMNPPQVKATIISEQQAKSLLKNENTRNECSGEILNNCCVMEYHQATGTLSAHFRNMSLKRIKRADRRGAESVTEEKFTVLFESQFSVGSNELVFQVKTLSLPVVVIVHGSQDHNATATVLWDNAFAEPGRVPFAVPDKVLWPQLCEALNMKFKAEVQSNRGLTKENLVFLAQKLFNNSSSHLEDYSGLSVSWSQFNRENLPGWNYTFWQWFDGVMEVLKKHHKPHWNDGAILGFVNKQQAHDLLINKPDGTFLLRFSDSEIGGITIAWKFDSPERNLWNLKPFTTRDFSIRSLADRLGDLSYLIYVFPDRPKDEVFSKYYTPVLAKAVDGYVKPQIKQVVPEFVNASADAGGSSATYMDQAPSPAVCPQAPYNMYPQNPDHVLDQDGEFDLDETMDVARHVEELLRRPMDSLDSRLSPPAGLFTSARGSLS
Kind of series: Fluorescence polarization (FP) binding assay, STAT5a. On the procedure: (§1) Table S1: Activities of test compounds against STAT5a and STAT5b in FP assays . Experiments were carried out in triplicate (n = 3) unless stated otherwise. n/a: not applicable.
(§2) [a]data taken from the literature.[1]
(§3) Ki values were calculated from IC50 values using the published equation.[2] […]
(§4) Table S2: Activities of 12 against STAT5 proteins in FP assays.
(§5) Fluorescence polarization assays
(§6) Fluorescence polarization assays were essentially carried out as previously described.[1] These assays quantitate to which extent a test compound is able to interfere with binding between a STAT protein and a fluorescein-labeled phosphotyrosine-containing peptide, which is known to bind to the SH2 domain of the respective STAT protein. The following protein […]
(§7) concentrations were used: 100 nM for STAT1, 150 nM for STAT3, 30 nM for STAT4, 180 nM for STAT5a, 90 nM for STAT5b and 105 nM for STAT6. All peptides were used at a concentration of 10 nM. The following peptides were used: 5 -carboxyfluorescein -GpYDKPHVL for STAT1; 5-carboxyfluorescein -GpYLPQTV-NH2 for STAT3; 5-carboxyfluorescein-GpYLPQNID-OH for STAT4; 5-carboxyfluorescein-GpYLVLDKW for STAT5a/b, and 5-carboxyfluorescein-GpYVPWQDLI-OH for STAT6. As a buffer system, 10 mM Tris (pH 8.0), 50 mM NaCl, 1 mM EDTA, 1 mM DTT, 0.1 % Nonidet P-40 substitute, and 2 % DMSO in water was used. All compounds tested were incubated for 1 h with the protein. Subsequently, the fluorescein-labeled peptide was added and the fluorescence polarization was measured with an Infinite F500 plate reader (Tecan) after another hour. IC50 values were converted to Ki-values using the published equation.[2]

Another series concerns the target T2, STAT5b (Homo sapiens, UniProt P51692).
T2 sequence (P51692 1-787): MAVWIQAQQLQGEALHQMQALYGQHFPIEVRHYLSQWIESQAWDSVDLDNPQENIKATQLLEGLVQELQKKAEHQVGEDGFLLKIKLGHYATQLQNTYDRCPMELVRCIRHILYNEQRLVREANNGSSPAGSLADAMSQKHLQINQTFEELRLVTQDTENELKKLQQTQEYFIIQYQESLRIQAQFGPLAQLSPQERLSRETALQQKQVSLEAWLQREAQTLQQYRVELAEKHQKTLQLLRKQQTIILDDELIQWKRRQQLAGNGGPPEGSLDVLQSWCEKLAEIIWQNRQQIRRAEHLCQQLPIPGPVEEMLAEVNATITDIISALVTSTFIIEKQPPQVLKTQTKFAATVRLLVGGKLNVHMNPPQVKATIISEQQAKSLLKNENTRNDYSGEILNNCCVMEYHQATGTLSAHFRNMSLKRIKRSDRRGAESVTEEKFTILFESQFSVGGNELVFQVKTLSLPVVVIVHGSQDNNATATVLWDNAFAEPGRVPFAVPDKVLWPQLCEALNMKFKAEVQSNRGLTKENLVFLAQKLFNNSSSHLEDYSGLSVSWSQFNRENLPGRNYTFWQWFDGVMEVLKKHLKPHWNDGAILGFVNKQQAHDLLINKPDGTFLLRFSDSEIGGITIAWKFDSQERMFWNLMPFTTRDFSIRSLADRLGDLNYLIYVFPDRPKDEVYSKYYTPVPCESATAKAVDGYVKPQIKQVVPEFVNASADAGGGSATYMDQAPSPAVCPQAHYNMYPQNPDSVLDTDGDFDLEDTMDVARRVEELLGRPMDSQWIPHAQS
Kind of series: Fluorescence polarization (FP) binding assay, STAT5b. As to conditions: for inhibition at 200 µM: read-out: STAT5b inhibition at 200 μM. Here is the method:
as §1, §2, §3, §4, §5, §6, §7
On the technique in general: Polarisation of emitted light reports the rotation of a fluorescent probe.

The target in series [2] is T1, STAT5a. To be noted: cited from earlier work.

At STAT5a [1], `COc1cc(-c2cc(OP(=O)(O)O)cc(-c3cc(Cl)c(Cl)c(Cl)c3)c2)cc(OC)c1OC` [6 a] registered a half-maximal inhibitory concentration (IC50) of 21.8 ± 0.9 µM and a Ki of 10.2 ± 0.4 µM. At STAT5b, the 50% inhibitory concentration (IC50) was 47 ± 2.6 µM and affinity was put at a Ki of 23.1 ± 1.3 µM.

As to `COc1cc(-c2cc(OP(=O)(O)O)cc(-c3ccc(Cl)cc3)c2)cc(OC)c1OC` [6 c], the melting point worked out at 129 °C. Moreover, at STAT5a [1], the 50% inhibitory concentration (IC50) came out at 45.7 ± 3.3 µM and the affinity, expressed as Ki, was 22.6 ± 1.6 µM. On STAT5b, this compound yielded a half-inhibitory concentration (IC50) of 93.8 ± 1.5 µM and an inhibition constant (Ki) of 46.1 ± 0.8 µM.

For `COc1cc(-c2cc(OP(=O)(O)O)cc(-c3ccc(F)cc3)c2)cc(OC)c1OC` [6 d], the melting point was found to be 165 °C. On STAT5a [1], this compound displayed a half-inhibitory concentration (IC50) of 66.5 ± 5 µM and a Ki of 33 ± 2.5 µM. Further, the inhibition at 200 µM at STAT5b is 51 ± 4%.

In turn, `COc1cc(-c2cc(OP(=O)(O)O)cc(-c3ccc(Cl)c(F)c3)c2)cc(OC)c1OC` [6 e] registered a melting point of 127 °C. At STAT5a [1], the IC50 amounted to 34.7 ± 4.4 µM and the Ki came out at 17.1 ± 2.2 µM. Moreover, at STAT5b, the IC50 amounted to 104 ± 9.5 µM and the inhibition constant Ki worked out at 51.2 ± 4.7 µM.

On STAT5a [1], `COc1cc(-c2cc(OP(=O)(O)O)cc(-c3ccc(C(N)=O)cc3)c2)cc(OC)c1OC` [6 f] yielded an IC50 of 68.9 ± 4.9 µM and a Ki of 34.1 ± 2.4 µM. For the same compound, the inhibition at 200 µM on STAT5b is 21 ± 6%.

The compound `CCOC(=O)c1ccc(-c2cc(OP(=O)(O)O)cc(-c3cc(OC)c(OC)c(OC)c3)c2)cc1` [6 g] had a melting point of 150 °C. Moreover, at STAT5a [1], the IC50 was 91.2 ± 5.5 µM and the inhibitory constant (Ki) came to 45.2 ± 2.7 µM. Also, on STAT5b, the IC50 is 125 ± 3.7 µM and the Ki turned out to be 61.3 ± 1.8 µM.

The compound `COc1cc(-c2cc(OP(=O)(O)O)cc(-c3ccc(C(=O)O)cc3)c2)cc(OC)c1OC` [6 h] registered a melting point of 152 °C. Further, on STAT5a [1], the IC50 came out at 36.8 ± 2.2 µM and the inhibition constant Ki stood at 18.2 ± 1.1 µM. Further, on STAT5b, the inhibition at 200 µM was found to be 50 ± 2%.

In turn, `COc1cc(-c2cc(OP(=O)(O)O)cc(-c3ccc(C(C)C)cc3)c2)cc(OC)c1OC` [6 i] gave a melting point of 182 °C. At STAT5a [1], this compound had an IC50 of 48.5 ± 4.8 µM and an inhibitory constant (Ki) of 24 ± 2.4 µM. Also, at STAT5b, the IC50 was found to be 51.8 ± 5.1 µM and the affinity, expressed as Ki, was 25.5 ± 2.5 µM.

In the case of `COc1cc(-c2cc(OP(=O)(O)O)cc(-c3ccc(C(C)(C)C)cc3)c2)cc(OC)c1OC` [6 j], the values for the 50% inhibitory concentration (IC50) on STAT5a [1] and at STAT5b were 66.9 ± 4.9 µM and 51.4 ± 4.9 µM, respectively. In addition, the results for the Ki at STAT5a [1] and at STAT5b were 33.2 ± 2.4 µM and 25.3 ± 2.4 µM, respectively.

`COc1cc(-c2cc(OP(=O)(O)O)cc(-c3cc(OC)c(OC)c(OC)c3)c2)cc(OC)c1OC` [compound 1]: the “selectivity for STAT5a over STAT5b” value at STAT5a [2] is “at least 9 fold”.
